Patent publication US20110076283A1, “METHOD FOR PREDICTING AND DIAGNOSING BRAIN TUMOR” (Universite De Lausanne, priority 2008, published 2011)

Key:
glioblastoma [1] = settings: in conjunction with TMZ/RT→TMZ; patients with a methylated MGMT gene promoter; cited from earlier work
glioblastoma [2] = settings: glioblastoma patients; in particular with epigenetically silenced MGMT gene; cited from earlier work
glioblastoma [3] = experiment: Multivariate Cox proportional hazards model of the treatment effect on survival (chemoradiotherapy versus radiotherapy alone) in glioblastoma patients; assay type: in vivo, human; settings: MGMT-methylated patients, multivariate Cox model N = 68
Protocol: Gene expression profiles were established from 80 frozen GBM samples obtained from 76 patients, comprising 70 tumors from initial surgery, and 10 samples resected at recurrence, and from four non-neoplastic brain tissue samples. All patients were treated within a phase II, or a randomized phase III trial {Stupp, 2005 #2126} and provided written informed consent for molecular studies of their tumor. The protocol was approved by the ethics committee at each center. Sixty-eight patients with complete molecular and clinical information were included in survival analysis, with a median age of 51 years (range: 26-70 yrs) at enrollment. Thereof, 42 received TMZ/RT→TMZ, while 26 were randomized to RT only. Second-line therapy frequently involved alkylating agents including TMZ. The validation set comprised 76 independent patients of the EORTC/NCIC-study (Stupp et al., 2005), 39 randomized to TMZ/RT→TMZ, and 37 to RT (median age 54 yrs, range 25-69 yrs), whose GBM were available on a tissue microarray. There was no difference in survival as compared to the general trial population, neither in the test population, nor the validation set (P>0.2).
For each covariate, the hazards ratio, its 95% confidence interval and the associated Wald p-value were examined The Benjamini Hochberg procedure ^s was applied as multiple testing correction method to convert p-values into estimated false discovery rates (FDR). The hazards ratio for a gene (or the mean of a cluster) were standardized by referring them to a variation corresponding to an interquartile range, in order to obtain an interpretable value, for microarray as well as for real-time PCR data. Therefore, the interpretation of an estimated hazard ratio of 1.5 is that the hazard rate increases by 50 percent for an increase of one interquartile range of the log-scale gene expression, independently of the expression level at which it is calculated.
The log-hazard function was defined as:
g(t,X,TMZ,MGMT,age,β)=ln [h0(t)]+β1X+β2TMZ+β3MGMT+β4age+β5(X*TMZ)+β6(TMZ*MGMT) […]

Row | Structure (SMILES) | anti-tumor activity (glioblastoma [1]) | survival (glioblastoma [2]) | Estimated Hazard Ratios (HR) for Treatment Effect (glioblastoma [3]; G98 expression level 1st quartile) | Estimated Hazard Ratios (HR) for Treatment Effect (glioblastoma [3]; G98 expression level 3rd quartile) | Estimated Hazard Ratios (HR) for Treatment Effect (glioblastoma [3]; G98 expression level median)
1 | CC(C)[C@H]1C(=O)N[C@@H](CCCN=C(N)N)C(=O)NCC(=O)N[C@@H](CC(=O)O)C(=O)N[C@H](Cc2ccccc2)C(=O)N1C [cilengitide] | increased anti-tumor activity |  |  |  | 
2 | Cn1nnc2c(C(N)=O)ncn2c1=O [TMZ/RT→TMZ, temozolomide] |  | significantly prolong survival | 0.13 | 0.47 | 0.25
